Test system: SARS-CoV-2
Assay: Antiviral activity against replicon RNA harboring SARS-CoV-2 infected in human Huh-7 cells assessed as inhibition of viral replication
Type: functional, organism-based
Settings: Severe acute respiratory syndrome coronavirus 2, Huh-7

| Compound | EC50 [nM] |
| --- | --- |
| COC(=O)/C=C/[C@H](C[C@@H]1CCNC1=O)NC(=O)[C@@H]1[C@@H]2[C@H](CN1C(=O)[C@@H](NC(=O)C(F)(F)F)C(C)(C)C)C2(C)C | 45 |
| CC(C)(C)[C@H](NC(=O)C(F)(F)F)C(=O)N1C[C@H]2[C@@H]([C@H]1C(=O)N[C@H](/C=C/C(N)=O)C[C@@H]1CCNC1=O)C2(C)C | > 5000 |
| CC(C)(C)[C@H](NC(=O)C(F)(F)F)C(=O)N1C[C@H]2[C@@H]([C@H]1C(=O)N[C@H](C#N)C[C@@H]1CCNC1=O)C2(C)C [NIRMATRELVIR] | 23 |

Source: ChEMBL document CHEMBL6092138, “Discovery of the potent covalent inhibitor with an acrylate warhead for SARS-CoV-2 3CL protease” (Bioorg Med Chem Lett, 2024)
